Measured values from patent publication US20200361871A1 (Enterprise Therapeutics Ltd., priority 2018, published 2020).

Target: human TMEM16A (TMEM16Aabc variant) (Homo sapiens, UniProt Q5XXA6, DEL476-501, form not given)
Experiment: Automated whole-cell patch clamp (Qpatch) TMEM16A potentiator assay in FRT cells stably expressing human TMEM16A
Format: cell-based
Conditions: for % Potentiation @ 3.33 μM Avg: 3.33 μM solution of test compound, percentage increase of baseline TMEM16A current; for EC50: calculated EC50, Qpatch TMEM16A current at +70 mV
In short: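 Potentiation was read as the rise in peak +70 mV current over baseline (%), from cumulative 5-min additions of compound. Recordings used whole-cell automated patch of FRT cells stably carrying human TMEM16Aabc, with pipette Ca2+ buffered to give ~20% maximal current. EC50 and efficacy came from concentration-response fits.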

Chain of human TMEM16A (TMEM16Aabc variant) (Q5XXA6 with tags, fused parts or gaps DEL476-501): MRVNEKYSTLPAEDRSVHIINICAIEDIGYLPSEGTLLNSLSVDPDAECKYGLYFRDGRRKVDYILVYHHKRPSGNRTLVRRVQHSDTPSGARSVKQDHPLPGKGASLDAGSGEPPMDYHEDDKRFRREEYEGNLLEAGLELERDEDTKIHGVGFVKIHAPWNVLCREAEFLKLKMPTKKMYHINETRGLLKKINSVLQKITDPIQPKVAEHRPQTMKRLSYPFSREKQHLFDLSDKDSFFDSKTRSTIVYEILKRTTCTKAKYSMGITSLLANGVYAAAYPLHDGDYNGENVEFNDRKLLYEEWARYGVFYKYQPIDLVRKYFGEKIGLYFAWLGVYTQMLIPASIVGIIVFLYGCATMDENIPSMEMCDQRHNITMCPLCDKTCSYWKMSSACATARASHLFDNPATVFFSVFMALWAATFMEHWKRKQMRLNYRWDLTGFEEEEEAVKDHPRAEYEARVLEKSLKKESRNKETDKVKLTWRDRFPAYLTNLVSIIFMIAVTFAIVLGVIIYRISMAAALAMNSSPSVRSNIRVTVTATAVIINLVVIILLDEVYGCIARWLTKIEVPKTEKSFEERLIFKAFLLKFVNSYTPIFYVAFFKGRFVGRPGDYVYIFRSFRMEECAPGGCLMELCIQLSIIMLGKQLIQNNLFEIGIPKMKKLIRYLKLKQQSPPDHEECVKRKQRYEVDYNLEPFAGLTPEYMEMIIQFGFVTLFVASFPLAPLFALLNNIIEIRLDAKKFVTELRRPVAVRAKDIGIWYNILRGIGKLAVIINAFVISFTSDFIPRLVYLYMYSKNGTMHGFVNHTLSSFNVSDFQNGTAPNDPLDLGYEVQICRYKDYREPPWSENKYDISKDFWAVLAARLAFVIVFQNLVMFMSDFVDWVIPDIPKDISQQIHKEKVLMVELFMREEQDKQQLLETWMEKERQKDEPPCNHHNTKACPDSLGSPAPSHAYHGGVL

SMILES	% Potentiation @ 3.33 μM Avg [%]	EC50 [nM]
CC(C)(C)NC(=O)c1cc(NC(=O)Cc2ccccc2Cl)ccn1 [Example 5.20, N-tert-Butyl-4-[[2-(2-chlorophenyl)acetyl]amino]pyridine-2-carboxamide]	221	570
CC(C)(C)NC(=O)c1cc(NC(=O)Cc2ccc(O)c(Cl)c2)ccn1 [Example 5.21, N-tert-Butyl-4-[[2-(3-chloro-4-hydroxy-phenyl)acetyl]amino]pyridine-2-carboxamide]	172	510
CC(C)(C)NC(=O)c1cc(NC(=O)C2CCc3ccccc32)ccn1 (stereo not drawn) [Example 5.22, N-tert-Butyl-4-(indane-1-carbonylamino)pyridine-2-carboxamide]	94	
CC(C)(C)NC(=O)c1cc(NC(=O)Cc2ccc3nccnc3c2)ccn1 [Example 5.23, N-tert-Butyl-4-[(2-quinoxalin-6-ylacetyl)amino]pyridine-2-carboxamide]	144	1200
CC(C)(C)NC(=O)c1cc(NC(=O)Cc2ccc3ccccc3c2)ccn1 [Example 5.24, N-tert-Butyl-4-[[2-(2-naphthyl)acetyl]amino]pyridine-2-carboxamide]	189	140
CC(C)(C)NC(=O)c1cc(NC(=O)C2COc3ccccc32)ccn1 (stereo not drawn) [Example 5.25, N-tert-Butyl-4-(2,3-dihydrobenzofuran-3-carbonylamino)pyridine-2-carboxamide]	67	
CC(C)(C)NC(=O)c1cc(NC(=O)C2CCCCc3ccccc32)ccn1 (stereo not drawn) [Example 5.26, N-tert-Butyl-4-(6,7,8,9-tetrahydro-5H-benzo[7]annulene-5-carbonylamino) pyridine-2-carboxamide]	110	1200
CC(C)(C)NC(=O)c1cc(NC(=O)C2CCCc3ccccc32)ccn1 (stereo not drawn) [Example 5.27, N-tert-Butyl-4-(tetralin-1-carbonylamino) pyridine-2-carboxamide]	84	
CC(C)(C)NC(=O)c1cc(NC(=O)Cc2ccc3ncccc3c2)ccn1 [Example 5.29, N-tert-Butyl-4-[[2-(6-quinolyl)acetyl]amino]pyridine-2-carboxamide]	190	860
CC(C)(C)NC(=O)c1cc(NC(=O)Cc2ccc3c(c2)OCCO3)ccn1 [Example 5.31]	145	
C#CC(C)(C)NC(=O)c1cc(NC(=O)CC2OCCc3ccccc32)ccn1 (stereo not drawn) [Example 5.33, N-(1,1-Dimethylprop-2-ynyl)-4-[(2-isochroman-1-ylacetyl)amino]pyridine-2-carboxamide]	49	
C#CC(C)(C)NC(=O)c1cc(NC(=O)CC2CCC(F)(F)CC2)ccn1 [Example 5.34, 4-[[2-(4,4-Difluorocyclohexyl)acetyl]amino]-N-(1,1-dimethylprop-2-ynyl)pyridine-2-carboxamide]	185	640
C#CC(C)(C)NC(=O)c1cc(NC(=O)Cc2ccc(C(F)(F)F)cc2)ccn1 [Example 5.35, N-(1,1-Dimethylprop-2-ynyl)-4-[[2-[4-(trifluoromethyl)phenyl]acetyl]amino]pyridine-2-carboxamide]	106	180
C#CC(C)(C)NC(=O)c1cc(NC(=O)Cc2c[nH]nc2C(F)(F)F)ccn1 [Example 5.36, N-(1,1-Dimethylprop-2-ynyl)-4-[[2-[3-(trifluoromethyl)-1H-pyrazol-4-yl]acetyl]amino] pyridine-2-carboxamide]	44	60
C#CC(C)(C)NC(=O)c1cc(NC(=O)Cc2cccc(C(F)(F)F)c2)ccn1 [Example 5.37, N-(1,1-Dimethylprop-2-ynyl)-4-[[2-[3-(trifluoromethyl)phenyl]acetyl]amino]pyridine-2-carboxamide]	117	150
C#CC(C)(C)NC(=O)c1cc(NC(=O)Cc2ccccc2C(F)(F)F)ccn1 [Example 5.38, N-(1,1-Dimethylprop-2-ynyl)-4-[[2-[2-(trifluoromethyl)phenyl]acetyl]amino]pyridine-2-carboxamide]	231	150
C#CC(C)(C)NC(=O)c1cc(NC(=O)CN2CCOc3ccccc32)ccn1 [Example 5.39, 4-[[2-(2,3-Dihydro-1,4-benzoxazin-4-yl)acetyl]amino]-N-(1,1-dimethylprop-2-ynyl)pyridine-2-carboxamide]	147	

SMILES	% Potentiation @ 3.33 μM Avg [%]	EC50 [nM]
CC(C)(C)NC(=O)c1cc(NC(=O)Cc2cc(C#N)ccc2O)ccn1 [Example 6, N-tert-Butyl-4-[[2-(5-cyano-2-hydroxy-phenyl)acetyl]amino]pyridine-2-carboxamide]	162	1140
CC(C)(C)C(C)(C)NC(=O)c1cccc(NC(=O)Cc2cc(Cl)ccc2O)c1 [Example 7, 3-[[2-(5-Chloro-2-hydroxy-phenyl)acetyl]amino]-N-(1,1,2,2-tetramethylpropyl) benzamide]	153	650
CCCC(C)(C)NC(=O)c1cccc(NC(=O)Cc2cc(Cl)ccc2O)c1 [Example 7.1, 3-[[2-(5-Chloro-2-hydroxy-phenyl)acetyl]amino]-N-(1,1-dimethylbutyl)benzamide]	241	340
CCCC(C)(C)NC(=O)c1cc(NC(=O)Cc2cc(Cl)ccc2O)ccn1 [Example 7.2, 4-[[2-(5-Chloro-2-hydroxy-phenyl)acetyl]amino]-N-(1,1-dimethylbutyl)pyridine-2-carboxamide]	203	260
O=C(Cc1cc(Cl)ccc1O)Nc1cccc(C(=O)NC2CCCCC2)c1 [Example 7.3, 3-[[2-(5-Chloro-2-hydroxy-phenyl)acetyl]amino]-N-cyclohexyl-benzamide]	125	200
O=C(Cc1cc(Cl)ccc1O)Nc1cccc(C(=O)NC2CCOCC2)c1 [Example 7.4, 3-[[2-(5-Chloro-2-hydroxy-phenyl)acetyl]amino]-N-tetrahydropyran-4-yl-benzamide]	52	650
CC(C)C(C)(C)NC(=O)c1cccc(NC(=O)Cc2cc(Cl)ccc2O)c1 [Example 7.5, 3-[[2-(5-Chloro-2-hydroxy-phenyl)acetyl]amino]-N-(1,1,2-trimethylpropyl)benzamide]	239	280
CC(C)C(C)(C)NC(=O)c1cc(NC(=O)Cc2cc(Cl)ccc2O)ccn1 [Example 7.6, 4-[[2-(5-Chloro-2-hydroxy-phenyl)acetyl]amino]-N-(1,1,2-trimethylpropyl)pyridine-2-carboxamide]	285	100
CC(C)NC(=O)c1cc(NC(=O)Cc2cc(Cl)ccc2O)ccn1 [Example 7.7, 4-[[2-(5-Chloro-2-hydroxy-phenyl)acetyl]amino]-N-isopropyl-pyridine-2-carboxamide]	234	130
CC1(NC(=O)c2cccc(NC(=O)Cc3cc(Cl)ccc3O)c2)CCOCC1 [Example 7.8, 3-[[2-(5-Chloro-2-hydroxy-phenyl)acetyl]amino]-N-(4-methyltetrahydropyran-4-yl)benzamide]	231	920
CC1(NC(=O)c2cc(NC(=O)Cc3cc(Cl)ccc3O)ccn2)CCOCC1 [Example 7.9, 4-[[2-(5-Chloro-2-hydroxy-phenyl)acetyl]amino]-N-(4-methyltetrahydropyran-4-yl)pyridine-2-carboxamide]	288	230
CC1(NC(=O)c2cccc(NC(=O)Cc3cc(Cl)ccc3O)c2)CCC1 [Example 7.10, 3-[[2-(5-Chloro-2-hydroxy-phenyl)acetyl]amino]-N-(1-methylcyclobutyl)benzamide]	218	360
O=C(Cc1cc(Cl)ccc1O)Nc1ccnc(C(=O)NC2CCOCC2)c1 [Example 7.11, 4-[[2-(5-Chloro-2-hydroxy-phenyl)acetyl]amino]-N-tetrahydropyran-4-yl-pyridine-2-carboxamide]	167	320
O=C(Cc1cc(Cl)ccc1O)Nc1ccnc(C(=O)N[C@H]2CC[C@@H](O)CC2)c1 [Example 7.12, 4-[2-(5-Chloro-2-hydroxyphenyl)acetamido]-N-[(1s,4s)-4-hydroxycyclohexyl]pyridine-2-carboxamide]	101	2110
CCC(C)NC(=O)c1cc(NC(=O)Cc2cc(Cl)ccc2O)ccn1 (stereo not drawn) [Example 7.13, 4-[[2-(5-Chloro-2-hydroxy-phenyl)acetyl]amino]-N-sec-butyl-pyridine-2-carboxamide]	212	90
CC(C)(O)C(C)(C)NC(=O)c1cc(NC(=O)Cc2cc(Cl)ccc2O)ccn1 [Example 7.14, 4-[[2-(5-Chloro-2-hydroxy-phenyl)acetyl]amino]-N-(2-hydroxy-1,1,2-trimethyl-propyl)pyridine-2-carboxamide]	225	150
